Test results published in ChEMBL document CHEMBL4507319 (2021).

Key:
[1] = target: Death-associated protein kinase 3 (Homo sapiens) (UniProt O43293); test: ZIPK(h) Eurofins kinase panel; settings: Compound concentration 1.0 uM
[2] = target: MAP kinase-interacting serine/threonine-protein kinase 2 (Homo sapiens) (UniProt Q9HBH9); test: Mnk2(h) Eurofins kinase panel; settings: Compound concentration 1.0 uM
SNU-16 = test: SNU-16 cell line Proliferation assay; assay type: functional, Homo sapiens; settings: time 3 day
[3] = target: 5'-AMP-activated protein kinase catalytic subunit alpha-1 (Homo sapiens, UniProt Q13131); settings: Compound concentration 1.0 uM
5'-AMP-activated protein kinase catalytic subunit alpha-1, sequence (Q13131 whole entry, looked up): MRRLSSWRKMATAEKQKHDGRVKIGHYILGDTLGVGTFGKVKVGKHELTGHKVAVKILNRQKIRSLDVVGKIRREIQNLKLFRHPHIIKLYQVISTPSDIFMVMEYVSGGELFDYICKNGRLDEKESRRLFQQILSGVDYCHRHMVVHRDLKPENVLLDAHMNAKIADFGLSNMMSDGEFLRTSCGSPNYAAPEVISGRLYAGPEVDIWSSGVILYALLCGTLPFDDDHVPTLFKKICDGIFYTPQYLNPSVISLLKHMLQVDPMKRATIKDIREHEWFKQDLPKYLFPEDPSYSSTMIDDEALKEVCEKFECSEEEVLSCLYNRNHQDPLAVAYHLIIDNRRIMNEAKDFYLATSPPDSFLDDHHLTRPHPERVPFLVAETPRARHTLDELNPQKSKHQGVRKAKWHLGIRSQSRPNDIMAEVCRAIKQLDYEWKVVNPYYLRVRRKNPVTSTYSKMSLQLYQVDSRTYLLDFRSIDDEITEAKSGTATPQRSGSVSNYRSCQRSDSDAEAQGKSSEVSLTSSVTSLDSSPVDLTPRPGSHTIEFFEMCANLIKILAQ

[4] = target: Homeodomain-interacting protein kinase 3 (Homo sapiens) (UniProt Q9H422); test: HIPK3(h) Eurofins kinase panel; settings: Compound concentration 1.0 uM
Homeodomain-interacting protein kinase 3 (Homo sapiens), sequence (Q9H422 whole entry, looked up): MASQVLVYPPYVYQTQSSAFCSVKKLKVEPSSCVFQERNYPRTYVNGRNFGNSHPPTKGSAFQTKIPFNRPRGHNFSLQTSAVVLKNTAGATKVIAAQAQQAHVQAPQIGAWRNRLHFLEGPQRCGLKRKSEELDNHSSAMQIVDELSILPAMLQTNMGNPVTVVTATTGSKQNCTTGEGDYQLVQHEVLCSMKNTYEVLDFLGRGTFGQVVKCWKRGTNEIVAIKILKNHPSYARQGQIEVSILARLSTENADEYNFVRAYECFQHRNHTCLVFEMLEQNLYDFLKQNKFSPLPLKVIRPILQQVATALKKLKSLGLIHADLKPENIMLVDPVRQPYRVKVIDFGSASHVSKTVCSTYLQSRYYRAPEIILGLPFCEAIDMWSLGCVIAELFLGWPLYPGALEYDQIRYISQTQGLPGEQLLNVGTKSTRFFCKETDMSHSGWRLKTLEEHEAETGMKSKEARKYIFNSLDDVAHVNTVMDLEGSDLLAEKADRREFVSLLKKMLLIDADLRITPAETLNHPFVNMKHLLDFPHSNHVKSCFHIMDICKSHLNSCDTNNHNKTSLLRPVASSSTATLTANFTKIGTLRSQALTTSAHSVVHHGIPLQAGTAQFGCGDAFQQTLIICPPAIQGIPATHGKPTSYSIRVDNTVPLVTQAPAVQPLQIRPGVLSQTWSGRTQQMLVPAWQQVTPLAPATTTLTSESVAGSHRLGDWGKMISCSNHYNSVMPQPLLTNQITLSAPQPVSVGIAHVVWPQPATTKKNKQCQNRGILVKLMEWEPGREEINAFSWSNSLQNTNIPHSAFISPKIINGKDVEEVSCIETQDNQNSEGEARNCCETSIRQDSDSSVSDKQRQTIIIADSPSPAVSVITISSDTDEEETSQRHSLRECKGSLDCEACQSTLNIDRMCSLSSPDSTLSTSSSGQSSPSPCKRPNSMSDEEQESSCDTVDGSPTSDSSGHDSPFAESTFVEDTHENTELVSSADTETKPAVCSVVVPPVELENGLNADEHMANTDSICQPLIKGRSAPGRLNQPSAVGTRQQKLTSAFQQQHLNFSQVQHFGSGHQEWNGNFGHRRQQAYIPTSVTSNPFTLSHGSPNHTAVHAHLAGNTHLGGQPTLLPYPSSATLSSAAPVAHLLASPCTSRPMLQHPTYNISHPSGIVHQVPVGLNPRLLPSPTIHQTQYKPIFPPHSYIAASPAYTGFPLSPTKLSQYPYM

[5] = target: T1, Calcium/calmodulin-dependent protein kinase type IV (Homo sapiens) (UniProt Q16566); test: CaMKIV(h) Eurofins kinase panel; settings: Compound concentration 1.0 uM
T1 sequence (whole entry): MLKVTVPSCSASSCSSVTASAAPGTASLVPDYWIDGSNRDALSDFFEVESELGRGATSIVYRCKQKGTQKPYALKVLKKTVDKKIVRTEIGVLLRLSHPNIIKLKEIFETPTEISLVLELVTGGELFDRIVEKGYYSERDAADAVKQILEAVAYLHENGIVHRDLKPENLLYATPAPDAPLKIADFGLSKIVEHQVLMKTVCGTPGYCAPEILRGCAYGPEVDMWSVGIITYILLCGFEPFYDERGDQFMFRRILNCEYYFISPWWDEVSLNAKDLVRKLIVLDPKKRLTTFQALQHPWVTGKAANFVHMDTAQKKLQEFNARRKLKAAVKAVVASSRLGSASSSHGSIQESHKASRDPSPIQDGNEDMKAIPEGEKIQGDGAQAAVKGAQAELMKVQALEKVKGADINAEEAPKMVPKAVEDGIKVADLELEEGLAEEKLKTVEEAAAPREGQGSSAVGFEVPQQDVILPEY

[6] = target: cAMP-dependent protein kinase catalytic subunit beta (Homo sapiens) (UniProt P22694); test: PKAcβ(h) Eurofins kinase panel; settings: Compound concentration 1.0 uM
[7] = target: RAF proto-oncogene serine/threonine-protein kinase (Homo sapiens) (UniProt P04049); test: c-RAF(h) Eurofins kinase panel; settings: Compound concentration 1.0 uM
RAF proto-oncogene serine/threonine-protein kinase (Homo sapiens), sequence (P04049 whole entry): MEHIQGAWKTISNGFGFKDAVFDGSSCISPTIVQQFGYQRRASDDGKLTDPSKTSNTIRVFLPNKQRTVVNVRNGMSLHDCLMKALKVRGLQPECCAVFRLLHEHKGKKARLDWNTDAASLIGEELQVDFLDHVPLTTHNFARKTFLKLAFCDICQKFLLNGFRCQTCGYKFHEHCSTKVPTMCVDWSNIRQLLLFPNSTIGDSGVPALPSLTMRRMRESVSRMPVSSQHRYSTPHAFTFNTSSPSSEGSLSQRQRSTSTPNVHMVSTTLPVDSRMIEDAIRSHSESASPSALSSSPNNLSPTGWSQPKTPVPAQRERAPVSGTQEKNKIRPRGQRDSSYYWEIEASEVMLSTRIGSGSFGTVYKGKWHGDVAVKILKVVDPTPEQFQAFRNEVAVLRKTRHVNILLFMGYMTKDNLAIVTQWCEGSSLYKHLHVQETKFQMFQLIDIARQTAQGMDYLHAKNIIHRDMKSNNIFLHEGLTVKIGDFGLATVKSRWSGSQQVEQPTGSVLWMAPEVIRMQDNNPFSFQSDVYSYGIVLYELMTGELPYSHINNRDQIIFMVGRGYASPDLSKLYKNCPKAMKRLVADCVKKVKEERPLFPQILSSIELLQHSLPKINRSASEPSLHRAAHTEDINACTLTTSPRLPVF

[8] = target: T2, Bone morphogenetic protein receptor type-2 (Homo sapiens) (UniProt Q13873); test: BMPR2(h) Eurofins kinase panel; settings: Compound concentration 1.0 uM
T2 sequence (whole entry): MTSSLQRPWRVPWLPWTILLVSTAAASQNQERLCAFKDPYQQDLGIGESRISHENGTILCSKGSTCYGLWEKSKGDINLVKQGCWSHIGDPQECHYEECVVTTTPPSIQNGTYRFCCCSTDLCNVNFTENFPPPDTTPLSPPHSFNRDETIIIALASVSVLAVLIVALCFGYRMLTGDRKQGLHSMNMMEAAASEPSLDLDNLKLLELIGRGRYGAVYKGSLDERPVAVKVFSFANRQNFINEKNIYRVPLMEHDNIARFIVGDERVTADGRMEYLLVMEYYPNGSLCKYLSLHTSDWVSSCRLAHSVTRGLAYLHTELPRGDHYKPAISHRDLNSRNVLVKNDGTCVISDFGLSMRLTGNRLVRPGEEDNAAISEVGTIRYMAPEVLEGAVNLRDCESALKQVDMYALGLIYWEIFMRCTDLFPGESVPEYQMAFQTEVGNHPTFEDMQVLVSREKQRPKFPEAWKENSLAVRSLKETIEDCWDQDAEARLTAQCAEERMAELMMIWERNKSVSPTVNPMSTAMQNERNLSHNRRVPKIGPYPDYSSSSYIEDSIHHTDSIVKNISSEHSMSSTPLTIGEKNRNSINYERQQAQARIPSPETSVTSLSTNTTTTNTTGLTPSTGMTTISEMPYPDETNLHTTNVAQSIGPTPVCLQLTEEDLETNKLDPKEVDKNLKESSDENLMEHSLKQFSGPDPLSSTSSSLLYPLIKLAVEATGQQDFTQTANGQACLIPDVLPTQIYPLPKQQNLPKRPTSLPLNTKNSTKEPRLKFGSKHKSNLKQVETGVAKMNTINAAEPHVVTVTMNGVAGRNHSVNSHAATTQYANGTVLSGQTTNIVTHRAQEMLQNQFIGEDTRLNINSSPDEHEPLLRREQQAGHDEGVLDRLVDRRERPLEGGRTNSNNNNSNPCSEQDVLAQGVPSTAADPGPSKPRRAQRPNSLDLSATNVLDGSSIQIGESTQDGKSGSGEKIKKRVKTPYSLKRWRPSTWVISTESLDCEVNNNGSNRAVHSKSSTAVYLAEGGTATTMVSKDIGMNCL

[9] = target: T3, Serine/threonine-protein kinase MAK (Homo sapiens) (UniProt P20794); test: MAK(h) Eurofins kinase panel; settings: Compound concentration 1.0 uM
T3 sequence (whole entry): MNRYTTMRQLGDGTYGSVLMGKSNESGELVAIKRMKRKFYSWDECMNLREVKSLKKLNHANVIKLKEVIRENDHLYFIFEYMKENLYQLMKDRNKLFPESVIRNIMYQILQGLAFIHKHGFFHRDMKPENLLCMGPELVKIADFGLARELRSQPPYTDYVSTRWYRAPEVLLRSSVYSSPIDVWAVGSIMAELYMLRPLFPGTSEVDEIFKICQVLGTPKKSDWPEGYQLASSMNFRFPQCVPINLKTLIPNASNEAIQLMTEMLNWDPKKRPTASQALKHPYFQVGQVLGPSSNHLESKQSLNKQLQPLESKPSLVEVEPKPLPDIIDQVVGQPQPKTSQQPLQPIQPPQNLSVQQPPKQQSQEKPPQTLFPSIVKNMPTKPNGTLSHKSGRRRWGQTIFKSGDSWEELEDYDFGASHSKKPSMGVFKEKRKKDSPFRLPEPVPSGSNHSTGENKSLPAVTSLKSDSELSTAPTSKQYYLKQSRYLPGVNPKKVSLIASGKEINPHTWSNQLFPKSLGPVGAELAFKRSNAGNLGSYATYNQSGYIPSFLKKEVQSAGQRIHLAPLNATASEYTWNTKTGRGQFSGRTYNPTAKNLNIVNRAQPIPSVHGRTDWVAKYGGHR

[10] = target: Protein kinase C theta type (Homo sapiens) (UniProt Q04759); test: PKCtheta (h) Eurofins kinase panel; settings: Compound concentration 1.0 uM
Protein kinase C theta type (Homo sapiens), sequence (Q04759 whole entry, looked up): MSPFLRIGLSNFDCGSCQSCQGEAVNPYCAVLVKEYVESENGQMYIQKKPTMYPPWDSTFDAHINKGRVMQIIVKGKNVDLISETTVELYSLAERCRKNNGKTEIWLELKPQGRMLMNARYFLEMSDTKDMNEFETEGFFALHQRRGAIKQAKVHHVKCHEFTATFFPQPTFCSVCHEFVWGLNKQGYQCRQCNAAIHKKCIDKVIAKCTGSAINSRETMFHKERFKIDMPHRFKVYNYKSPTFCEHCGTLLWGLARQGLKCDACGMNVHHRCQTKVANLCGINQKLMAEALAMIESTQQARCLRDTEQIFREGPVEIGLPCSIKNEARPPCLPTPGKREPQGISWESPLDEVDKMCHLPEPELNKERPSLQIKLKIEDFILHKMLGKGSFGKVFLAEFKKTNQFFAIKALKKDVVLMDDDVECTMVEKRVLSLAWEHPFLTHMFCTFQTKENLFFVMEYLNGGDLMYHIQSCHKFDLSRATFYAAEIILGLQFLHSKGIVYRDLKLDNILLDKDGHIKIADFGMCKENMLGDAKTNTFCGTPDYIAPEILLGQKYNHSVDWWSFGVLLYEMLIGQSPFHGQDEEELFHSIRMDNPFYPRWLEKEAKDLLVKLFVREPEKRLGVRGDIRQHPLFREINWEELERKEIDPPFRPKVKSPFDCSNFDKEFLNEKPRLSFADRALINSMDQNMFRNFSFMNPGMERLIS

Death-associated protein kinase 3 (Homo sapiens), sequence (O43293 whole entry, looked up): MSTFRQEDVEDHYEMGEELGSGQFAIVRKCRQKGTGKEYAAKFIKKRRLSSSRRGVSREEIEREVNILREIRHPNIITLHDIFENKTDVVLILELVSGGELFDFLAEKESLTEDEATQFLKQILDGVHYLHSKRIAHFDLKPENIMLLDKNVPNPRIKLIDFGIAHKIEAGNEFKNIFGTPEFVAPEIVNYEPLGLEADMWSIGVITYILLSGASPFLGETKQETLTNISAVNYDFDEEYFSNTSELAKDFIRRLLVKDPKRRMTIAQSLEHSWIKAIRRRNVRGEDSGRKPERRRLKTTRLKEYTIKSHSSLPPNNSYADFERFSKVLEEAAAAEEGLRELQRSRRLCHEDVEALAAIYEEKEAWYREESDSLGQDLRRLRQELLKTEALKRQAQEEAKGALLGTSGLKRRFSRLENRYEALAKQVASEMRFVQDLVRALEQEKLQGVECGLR
MAP kinase-interacting serine/threonine-protein kinase 2 (Homo sapiens), sequence (Q9HBH9 whole entry, looked up): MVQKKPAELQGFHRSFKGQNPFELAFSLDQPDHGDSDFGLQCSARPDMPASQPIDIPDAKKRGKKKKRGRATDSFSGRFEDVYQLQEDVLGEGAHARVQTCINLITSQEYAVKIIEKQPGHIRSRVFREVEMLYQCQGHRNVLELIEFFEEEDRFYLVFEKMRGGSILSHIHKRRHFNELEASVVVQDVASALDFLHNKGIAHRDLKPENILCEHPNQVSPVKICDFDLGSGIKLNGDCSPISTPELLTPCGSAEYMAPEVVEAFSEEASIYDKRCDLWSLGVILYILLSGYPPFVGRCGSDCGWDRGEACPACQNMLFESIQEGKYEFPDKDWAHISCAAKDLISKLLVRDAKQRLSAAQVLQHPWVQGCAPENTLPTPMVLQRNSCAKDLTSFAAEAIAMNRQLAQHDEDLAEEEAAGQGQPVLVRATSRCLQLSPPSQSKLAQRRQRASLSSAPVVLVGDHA

## CCc1ccccc1C(=O)Nc1n[nH]c2c(C)c(F)c(C3C(C#N)=C(C)N(C)C(C)=C3C#N)cc12 [BAY-3827]
[1]
  % residual kinase activity: 91%
[2]
  % residual kinase activity: 110%
SNU-16
  Cell Proliferation IC50: 12 µM
[3]
  % residual kinase activity: 1%
[4]
  % residual kinase activity: 100%
[5]
  % residual kinase activity: 111%
[6]
  % residual kinase activity: 90%
[7]
  % residual kinase activity: 99%
[8]
  % residual kinase activity: 104%
[9]
  % residual kinase activity: 95%
[10]
  % residual kinase activity: 33%
